Results as given in ChEMBL document CHEMBL5344425, “Discovery of 5-(Pyrimidin-2-ylamino)-1H-indole-2-carboxamide Derivatives as Nur77 Modulators with Selective and Potent Activity Against Triple-Negative Breast Cancer” (J Med Chem, 2023).
Calls of active or inactive are those of the source. The rule behind the calls is not given here.

Key:
[1] = system: MDA-MB-231; experiment: Antiproliferative activity against human MDA-MB-231 cells assessed as inhibition of cell growth measured after 24 hrs by MTT assay; format: functional, cell-based; conditions: MDA-MB-231, 24 h
[2] = Cytotoxicity against human MCF-10A cells assessed as inhibition of cell growth measured after 24 hrs by MTT assay; format: toxicity, cell-based
[3] = system: T47D; experiment: Antiproliferative activity against human T47D cells assessed as inhibition of cell growth measured after 24 hrs by MTT assay; format: functional, cell-based
[4] = molecular target: T1, Nuclear receptor subfamily 4immunitygroup A member 1 (Homo sapiens, UniProt P22736); experiment: Binding affinity to His-tagged Nur77 ligand binding domain (unknown origin) at 10 uM by surface plasmon resonance assay; conditions: filed as modulator
T1 sequence (P22736 whole entry, the tested form may be a part): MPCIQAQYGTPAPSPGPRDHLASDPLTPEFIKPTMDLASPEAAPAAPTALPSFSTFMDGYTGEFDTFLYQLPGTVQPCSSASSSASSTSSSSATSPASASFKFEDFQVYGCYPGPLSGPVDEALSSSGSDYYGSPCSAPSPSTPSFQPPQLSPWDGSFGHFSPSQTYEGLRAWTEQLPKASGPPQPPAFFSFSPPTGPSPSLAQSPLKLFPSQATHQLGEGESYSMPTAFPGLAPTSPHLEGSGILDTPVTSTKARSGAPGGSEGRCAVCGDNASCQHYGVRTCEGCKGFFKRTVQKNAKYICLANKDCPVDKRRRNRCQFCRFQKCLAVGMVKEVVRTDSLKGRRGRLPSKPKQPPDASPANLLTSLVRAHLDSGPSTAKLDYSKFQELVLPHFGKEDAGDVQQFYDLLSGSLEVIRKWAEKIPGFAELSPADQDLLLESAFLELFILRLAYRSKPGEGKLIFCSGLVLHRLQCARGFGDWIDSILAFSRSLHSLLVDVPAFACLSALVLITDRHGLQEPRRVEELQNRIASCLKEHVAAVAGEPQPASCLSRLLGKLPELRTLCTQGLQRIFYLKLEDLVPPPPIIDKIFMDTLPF

[5] = molecular target: T1, Nuclear receptor subfamily 4immunitygroup A member 1; experiment: Binding affinity to His-tagged Nur77 ligand binding domain (unknown origin) by surface plasmon resonance assay
[6] = molecular target: T1, Nuclear receptor subfamily 4immunitygroup A member 1; experiment: Antagonist activity at Nur77 ligand binding domain (unknown origin) transfected in HEK293T cells cotransfected with pG5-Luc assessed as inhibition of receptor transcriptional activity at 2 uM measured after 12 hrs by luciferase reporter gene assay; format: cell-based; conditions: filed as antagonist
[7] = Toxicity in Zebra fish AB embryo assessed as mortality rate at 1.25 to 5 uM measured after 24 hrs; design: species or system Danio rerio; conditions: zebrafish, dose 1.25-5 µM
[8] = Toxicity in Zebra fish AB embryo assessed as mortality rate at 1.25 uM measured after 24 to 72 hrs; design: species or system Danio rerio; conditions: AB, zebrafish, time 24-72 hrs

SMILES | IC50 [1] [µM] | IC50 at 24 h [2] [µM] | IC50 [3] [µM] | Activity [4] | Kd [5] [µM] | inhibition [6] | mortality at 24 h, up to 5 µM [7] [%] | mortality at 1.25 µM [8] [%]
CN(C)CCNC(=O)c1cc2cc(Nc3nccc(-c4ccc(C(F)(F)F)cc4)n3)ccc2[nH]1 | 10.3 | 2.12 | 6.71 | – | – | – | – | –
CCN(CC)CCCNC(=O)c1cc2cc(Nc3nccc(-c4ccc(C(F)(F)F)cc4)n3)ccc2[nH]1 | 6.52 | 6.57 | 6.19 | – | – | – | – | –
CCCCN(CCCC)CCCNC(=O)c1cc2cc(Nc3nccc(-c4cccnc4)n3)ccc2[nH]1 | 4.3 | 6.48 | 10.6 | Active | – | – | – | –
CN(C)CCCNC(=O)c1cc2cc(Nc3nccc(-c4cc(OCc5ccccc5)cc(OCc5ccccc5)c4)n3)ccc2[nH]1 | 1.69 | 3.9 | 11.4 | – | – | – | – | –
CCN(CC)CCCNC(=O)c1cc2cc(Nc3nccc(-c4ccccc4)n3)ccc2[nH]1 | 7.24 | 13 | 3.24 | Active | – | – | – | –
CCN(CC)CCCNC(=O)c1cc2cc(Nc3nccc(-c4nc(C)sc4C)n3)ccc2[nH]1 | > 20 | 19.2 | > 20 | Active | – | – | – | –
COc1ccc(-c2ccnc(Nc3ccc4[nH]c(C(=O)NCCN5CCN(C)CC5)cc4c3)n2)cc1OC | 17.4 | > 20 | 14.4 | – | – | – | – | –
CN(C)CCCNC(=O)c1cc2cc(Nc3nccc(-c4cccs4)n3)ccc2[nH]1 | > 20 | > 20 | 4.28 | Active | – | – | – | –
CCN(CC)CCCNC(=O)c1cc2cc(Nc3nccc(-c4ccccc4OC)n3)ccc2[nH]1 | 8.32 | > 20 | 13 | Active | – | – | – | –
O=C(NCCN1CCCCC1)c1cc2cc(Nc3nccc(-c4cccc(OCc5ccccc5)c4)n3)ccc2[nH]1 | 5.41 | 1.76 | > 20 | – | – | – | – | –
CCN(CC)CCCNC(=O)c1cc2cc(Nc3nccc(-c4cccs4)n3)ccc2[nH]1 | 3.27 | 14.3 | 8.41 | Active | – | – | – | –
CCN(CC)CCCNC(=O)c1cc2cc(Nc3nccc(-c4ccc(OC)c(OC)c4)n3)ccc2[nH]1 | 5.98 | 3.57 | 11.4 | Active | – | – | – | –
CN(C)CCCNC(=O)c1cc2ccc(Nc3nccc(-c4cccnc4)n3)cc2[nH]1 | 3.09 | > 20 | > 20 | Active | 0.354 | – | – | –
CN(C)CCNC(=O)c1cc2cc(Nc3nccc(-c4cccnc4)n3)ccc2[nH]1 | 3.12 | > 20 | > 20 | – | – | – | – | –
Cc1nc(-c2ccnc(Nc3ccc4[nH]c(C(=O)NCCCN(C)C)cc4c3)n2)c(C)s1 | > 20 | 15.9 | 16 | – | – | – | – | –
CN(C)CCCNC(=O)c1cc2cc(Nc3nccc(-c4ccccc4)n3)ccc2[nH]1 | 8.87 | > 20 | 7.88 | Active | – | – | – | –
CCN(CC)CCCNC(=O)c1cc2cc(Nc3nccc(-c4cc(OCc5ccccc5)cc(OCc5ccccc5)c4)n3)ccc2[nH]1 | > 20 | 2.89 | 1.89 | – | – | – | – | –
Cc1nc(-c2ccnc(Nc3ccc4[nH]c(C(=O)NCCN5CCCC5)cc4c3)n2)c(C)s1 | > 20 | > 20 | > 20 | – | – | – | – | –

SMILES | IC50 [1] [µM] | IC50 at 24 h [2] [µM] | IC50 [3] [µM] | Activity [4] | Kd [5] [µM] | inhibition [6] | mortality at 24 h, up to 5 µM [7] [%] | mortality at 1.25 µM [8] [%]
Cc1nc(-c2ccnc(Nc3ccc4[nH]c(C(=O)NCCN(C)C)cc4c3)n2)c(C)s1 | > 20 | 15 | 3.65 | Active | – | – | – | –
CN(C)CCCNC(=O)c1cc2cc(Nc3nccc(-c4ccc(Cl)s4)n3)ccc2[nH]1 | 6.14 | 7.43 | 4.29 | Active | – | – | – | –
CCCCN(CCCC)CCCNC(=O)c1cc2cc(Nc3nccc(-c4ccccc4)n3)ccc2[nH]1 | 7.8 | 4.96 | 15.2 | – | – | – | – | –
COc1ccccc1-c1ccnc(Nc2ccc3[nH]c(C(=O)NCCCN(C)C)cc3c2)n1 | 4.79 | > 20 | > 20 | – | – | – | – | –
CC(C)N(CCNC(=O)c1cc2cc(Nc3nccc(-c4ccccc4)n3)ccc2[nH]1)C(C)C | 11.1 | 4.05 | 9.41 | – | – | – | – | –
COc1ccc(-c2ccnc(Nc3ccc4[nH]c(C(=O)NCCCN(C)C)cc4c3)n2)cc1OC | 2.58 | 15 | 6.01 | Active | – | – | – | –
Cc1nc(-c2ccnc(Nc3ccc4[nH]c(C(=O)NCCN5CCOCC5)cc4c3)n2)c(C)s1 | > 20 | 15.4 | > 20 | – | – | – | – | –
CCN(CC)CCCNC(=O)c1cc2cc(Nc3nccc(-c4cccnc4)n3)ccc2[nH]1 | 10.5 | > 20 | > 20 | – | – | – | – | –
COc1ccc(-c2ccnc(Nc3ccc4[nH]c(C(=O)NCCN5CCCC5)cc4c3)n2)cc1OC | 4.02 | 9.71 | 3.26 | – | – | – | – | –
CN(C)CCCNC(=O)c1cc2cc(Nc3nccc(-c4ccc(C(F)(F)F)cc4)n3)ccc2[nH]1 | 0.91 | 2.09 | 9.23 | – | – | – | – | –
CCN(CC)CCCNC(=O)c1cc2cc(Nc3nccc(-c4ccc(Cl)s4)n3)ccc2[nH]1 | 6.7 | 5.54 | 2.3 | Active | – | – | – | –
CC1=C(O)C(=O)C=C2C1=CC=C1[C@@]2(C)CC[C@@]2(C)[C@@H]3C[C@](C)(C(=O)O)CC[C@]3(C)CC[C@]12C [CELASTROL] | – | 5.45 | > 20 | Active | – | Active | 100 | 100
CCCCCNC(=O)c1cc2cc(Nc3nccc(-c4ccccc4)n3)ccc2[nH]1 | 17.3 | > 20 | > 20 | Active | – | – | – | –
O=C(N/N=C/c1ccncc1)c1ccc(Nc2ccnc3ccccc23)cc1 | – | – | – | – | 1.17 | – | – | –
CCN(CC)CCCNC(=O)c1cc2cc(Nc3nccc(-c4cccc(OCc5ccccc5)c4)n3)ccc2[nH]1 | > 20 | > 20 | > 20 | – | – | – | – | –
CN(C)CCNC(=O)c1cc2cc(Nc3nccc(-c4ccccc4)n3)ccc2[nH]1 | 8.04 | > 20 | > 20 | Active | – | – | – | –
COc1ccc2[nH]cc(CCNC(=O)c3cc4cc(Nc5nccc(-c6cccnc6)n5)ccc4[nH]3)c2c1 | 18.2 | > 20 | 8.36 | – | – | – | – | –
CN(C)CCNC(=O)c1cc2cc(Nc3nccc(-c4cccc(OCc5ccccc5)c4)n3)ccc2[nH]1 | > 20 | > 20 | > 20 | – | – | – | – | –
